Data from ChEMBL document CHEMBL3132858, “6-Alkyl-, 6-aryl- or 6-hetaryl-7-deazapurine ribonucleosides as inhibitors of human or MTB adenosine kinase and potential antimycobacterial agents” (Medchemcomm, 2013).
Active and inactive are the calls of the source. The calls are words filed in the database; no cut-off is given here.

Legend:
[1] = Cytotoxicity against human MRC5 cells after 72 hrs by MTT assay; assay type: cell-based
Adenosine kinase [2] = biological target: Adenosine kinase (Mycobacterium tuberculosis (strain CDC 1551 / Oshkosh), UniProt P9WID4); test: Inhibition of Mycobacterium tuberculosis ADK using [3H]-adenosine by scintillation counting method
Adenosine kinase [3] = biological target: T1, Adenosine kinase (Homo sapiens, UniProt P55263); test: Activity of human ADK assessed as compound conversion to 5'-phosphate form incubated at 37 degC for 20 mins by HPLC method; design: concentration or dose not given beside the values
Target sequence in this assay (P55263 2-362 limits assumed): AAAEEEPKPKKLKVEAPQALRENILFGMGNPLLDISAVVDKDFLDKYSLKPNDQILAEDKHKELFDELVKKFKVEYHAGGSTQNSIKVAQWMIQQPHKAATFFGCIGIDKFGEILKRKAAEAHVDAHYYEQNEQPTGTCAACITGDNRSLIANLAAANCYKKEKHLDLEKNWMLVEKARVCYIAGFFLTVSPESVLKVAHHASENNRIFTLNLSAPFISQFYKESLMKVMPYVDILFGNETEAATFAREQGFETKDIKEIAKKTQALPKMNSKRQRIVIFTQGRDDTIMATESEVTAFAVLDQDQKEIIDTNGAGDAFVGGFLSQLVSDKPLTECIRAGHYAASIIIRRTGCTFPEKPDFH

Adenosine kinase [4] = biological target: T1, Adenosine kinase; test: Inhibition of human ADK using [3H]-adenosine by scintillation counting method
Target sequence in this assay (P55263 whole entry): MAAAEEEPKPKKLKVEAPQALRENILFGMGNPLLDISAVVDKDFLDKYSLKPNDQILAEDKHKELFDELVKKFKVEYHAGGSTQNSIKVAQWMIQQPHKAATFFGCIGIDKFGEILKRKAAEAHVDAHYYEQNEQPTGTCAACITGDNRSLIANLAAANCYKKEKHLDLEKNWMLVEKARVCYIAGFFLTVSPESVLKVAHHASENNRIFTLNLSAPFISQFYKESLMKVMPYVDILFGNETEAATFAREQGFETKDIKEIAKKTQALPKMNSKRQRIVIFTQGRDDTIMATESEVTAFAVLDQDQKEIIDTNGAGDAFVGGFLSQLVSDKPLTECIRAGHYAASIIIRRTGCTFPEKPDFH

[5] = biological target: Adenosine kinase (Mycobacterium tuberculosis (strain CDC 1551 / Oshkosh)) (UniProt P9WID4); test: Activity of Mycobacterium tuberculosis ADK assessed as compound conversion to 5'-phosphate form incubated at 37 degC for 20 mins by HPLC method
[6] = Cytotoxicity against human BJ cells after 72 hrs by MTT assay; assay type: cell-based

Sequence of Adenosine kinase (Mycobacterium tuberculosis (strain CDC 1551 / Oshkosh)) (P9WID4 2-324 limits assumed): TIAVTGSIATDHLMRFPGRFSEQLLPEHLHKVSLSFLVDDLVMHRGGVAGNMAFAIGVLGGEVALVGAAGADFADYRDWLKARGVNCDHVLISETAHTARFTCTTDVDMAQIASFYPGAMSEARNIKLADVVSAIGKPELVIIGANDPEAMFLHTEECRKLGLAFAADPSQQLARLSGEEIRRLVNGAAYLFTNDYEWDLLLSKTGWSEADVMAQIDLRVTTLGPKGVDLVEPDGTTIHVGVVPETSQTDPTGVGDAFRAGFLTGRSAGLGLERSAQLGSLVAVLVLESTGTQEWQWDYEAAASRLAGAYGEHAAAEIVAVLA
Sequence of Adenosine kinase (Mycobacterium tuberculosis (strain CDC 1551 / Oshkosh), UniProt P9WID4) (P9WID4 whole entry): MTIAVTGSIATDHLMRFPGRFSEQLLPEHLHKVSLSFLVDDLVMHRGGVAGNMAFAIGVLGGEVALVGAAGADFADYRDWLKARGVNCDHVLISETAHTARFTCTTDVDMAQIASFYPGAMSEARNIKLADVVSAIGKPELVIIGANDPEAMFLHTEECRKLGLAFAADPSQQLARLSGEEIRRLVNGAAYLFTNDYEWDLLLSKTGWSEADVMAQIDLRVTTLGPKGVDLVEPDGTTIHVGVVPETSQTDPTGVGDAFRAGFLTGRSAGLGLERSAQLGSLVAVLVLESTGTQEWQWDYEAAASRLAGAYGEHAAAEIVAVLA

SMILES: OC[C@H]1O[C@@H](n2cc(F)c3c(-c4ccc[nH]4)ncnc32)[C@H](O)[C@@H]1O
- CC50 at 72 h [1]: 44400 nM
- IC50 (Adenosine kinase [2]): 70 nM
- Activity (Adenosine kinase [3]): 76%
- IC50 (Adenosine kinase [4]): > 10000 nM
- Activity [5]: inactive
- CC50 at 72 h [6]: 2990 nM

SMILES: OC[C@H]1O[C@@H](n2ccc3c(-c4ccc(F)cc4)ncnc32)[C@H](O)[C@@H]1O
- CC50 at 72 h [1]: > 50000 nM
- IC50 (Adenosine kinase [2]): 80 nM
- Activity (Adenosine kinase [3]): 17%
- IC50 (Adenosine kinase [4]): > 10000 nM
- Activity [5]: inactive
- CC50 at 72 h [6]: > 50000 nM

SMILES: OC[C@H]1O[C@@H](n2ccc3c(-c4ccc[nH]4)ncnc32)[C@H](O)[C@@H]1O
- CC50 at 72 h [1]: > 50000 nM
- IC50 (Adenosine kinase [2]): 73 nM
- Activity (Adenosine kinase [3]): 40%
- IC50 (Adenosine kinase [4]): > 10000 nM
- Activity [5]: inactive
- CC50 at 72 h [6]: > 50000 nM

SMILES: OC[C@H]1O[C@@H](n2cc(F)c3c(-c4cccs4)ncnc32)[C@H](O)[C@@H]1O
- CC50 at 72 h [1]: 47200 nM
- IC50 (Adenosine kinase [2]): 35 nM
- Activity (Adenosine kinase [3]): 52%
- IC50 (Adenosine kinase [4]): 1100 nM
- Activity [5]: inactive
- CC50 at 72 h [6]: 170 nM

SMILES: OC[C@H]1O[C@@H](n2cc(F)c3c(-c4c[nH]cn4)ncnc32)[C@H](O)[C@@H]1O
- CC50 at 72 h [1]: > 50000 nM
- IC50 (Adenosine kinase [2]): 1000 nM
- Activity (Adenosine kinase [3]): 11%
- IC50 (Adenosine kinase [4]): > 20000 nM
- Activity [5]: inactive
- CC50 at 72 h [6]: > 50000 nM

SMILES: OC[C@H]1O[C@@H](n2ccc3c(-c4ccco4)ncnc32)[C@H](O)[C@@H]1O
- CC50 at 72 h [1]: 11800 nM
- IC50 (Adenosine kinase [2]): 320 nM
- Activity (Adenosine kinase [3]): 56%
- IC50 (Adenosine kinase [4]): 1300 nM
- Activity [5]: inactive
- CC50 at 72 h [6]: 230 nM

SMILES: OCc1ncnc2c1ccn2[C@@H]1O[C@H](CO)[C@@H](O)[C@H]1O
- CC50 at 72 h [1]: 280 nM
- IC50 (Adenosine kinase [2]): > 5000 nM
- Activity (Adenosine kinase [3]): 26%
- IC50 (Adenosine kinase [4]): > 10000 nM
- Activity [5]: inactive
- CC50 at 72 h [6]: 340 nM
